Values joined by “and” are separate entries in the source; they are usually repeats but may differ in a detail not shown here. Equal entries are not always repeated.
Key:
Botrytis cinerea = experiment: Treatment of strawberries (Example 5): wounded, inoculated, dipped in antifungal composition; type: in vivo; details: 500 ppm natamycin, 600 ppm fenpropidin or both; for Observed antifungal activity O (%): strawberries, 20° C.
Method: Twelve fresh, organic strawberries were used per treatment. Each strawberry was wounded with a 0.5 mm long cut and each wound was inoculated with 10 μl of a Botrytis cinerea suspension containing 1×10^5 of spores/ml. […] A composition without natamycin or fenpropidin was used as control. […] The treated strawberries were incubated in a closed box in the dark at 20° C. for 9 days. During incubation, mould growth on the strawberries was assessed in a twofold manner: […] The expected antifungal activity (E in %) of the combined antifungal composition comprising both active ingredients was calculated according to the Colby equation (Colby, 1967): […] wherein X and Y are the observed antifungal activities (in %) of the individual active ingredients X and Y, respectively.

Penicillium italicum = experiment: Treatment of oranges (Examples 6-9): wounded, inoculated, wound treated with antifungal composition; type: in vivo; details: for Observed antifungal activity O (%): oranges, 20° C.
Method: During incubation, mould growth on the strawberries was assessed in a twofold manner: (i) the number of moulded strawberries per total of 12 strawberries was counted; and (ii) the antifungal activity (in %) of the individual and combined active ingredients was determined by calculating the reduction in mould growth observed on the strawberries treated with the antifungal composition in comparison to the mould growth on the strawberries treated with the control composition. The expected antifungal activity (E in %) of the combined antifungal composition comprising both active ingredients was calculated according to the Colby equation (Colby, 1967): […]
Eight fresh, organic oranges were used per treatment. Each orange was soaked in a 180 ppm hypochlorite solution for 10 minutes, then rinsed thoroughly with fresh tap water and dried. The peel of each disinfected orange was wounded once using a cork borer according to the method described by de Lapeyre de Bellaire and Dubois (1987). Subsequently, each wound was inoculated with 10 μl of a Penicillium italicum suspension containing 5×10^5 of spores/ml. After incubation for 3 hours at 20° C., each wound and the orange peel area of 1 cm around the wound was treated with in total 150 μl of a freshly prepared aqueous antifungal composition comprising either 500 ppm natamycin (DSM Food Specialties, Delft, The Netherlands), 500 ppm fenpropidin or both. Each antifungal composition also comprised 3.2% (w/w) beeswax, 0.8% (w/w) glycerol, 0.7% (w/w) polyoxyethylene sorbitan monostearate (Tween 60), 0.1% (w/w) polyoxyethylene sorbitan monooleate (Tween 80), 0.05% (w/w) methylhydroxyethyl-cellulose (MHEC), 0.03% (w/w) anti-foaming agent, 0.02% (w/w) xanthan gum, 0.02% (w/w) citric acid, 0.01% (w/w) lactic acid and 0.01% potassium sorbate. A composition without natamycin or fenpropidin was used as control. […] The treated oranges were incubated in a closed box in the dark at 20° C. and assessed on mould growth during a 28-day incubation period. The antifungal activity (in %) of the individual and combined active ingredients was determined by calculating the reduction in mould growth observed on the oranges treated with the antifungal composition in comparison to the mould growth on the oranges treated with the control composition according to the Colby method (Colby, 1967) as described in Example 5.
(§1) The experiment was conducted as described in Example 6, except for the fact that each wounded and inoculated orange was treated with 150 μl of a freshly prepared aqueous antifungal composition comprising either 250 ppm natamycin (DSM Food Specialties, Delft, The Netherlands), 250 ppm fenpropidin or both. During the 26-day incubation period, the treated oranges were assessed on mould growth according to the two methods described in Example 5.
as §1, with “either 500” for “either 250”, “Netherlands), 400” for “Netherlands), 250”, “ppm spiroxamine” for “ppm fenpropidin”
as §1, with “Netherlands), 200” for “Netherlands), 250”, “ppm spiroxamine” for “ppm fenpropidin”

CC(Cc1ccc(C(C)(C)C)cc1)CN1CCCCC1 (stereo not drawn) [Fenpropidin, fenpropidin]
Number of moulded strawberries/total number of 12 strawberries (Botrytis cinerea; Day 5, 20° C.): 12 and 12/12 | Number of moulded strawberries/total number of 12 strawberries (Botrytis cinerea; Day 6, 20° C.): 12 and 12/12 | Observed antifungal activity O (%) (Botrytis cinerea; day 4): 0% | Observed antifungal activity O (%) (Botrytis cinerea; day 5): 0% | Observed antifungal activity O (%) (Botrytis cinerea; day 6): 0% | Observed antifungal activity O (%) (Botrytis cinerea; day 7): 0% | Observed antifungal activity O (%) (Botrytis cinerea; day 8): 0% | Observed antifungal activity O (%) (Botrytis cinerea; day 9): 0% | Number of moulded oranges/total number of 8 oranges (Penicillium italicum; Day 18, 20° C., 250 ppm natamycin, 250 ppm fenpropidin or both): 6/8 | Number of moulded oranges/total number of 8 oranges (Penicillium italicum; Day 19, 20° C., 250 ppm natamycin, 250 ppm fenpropidin or both): 6/8 | Number of moulded oranges/total number of 8 oranges (Penicillium italicum; Day 20, 20° C., 250 ppm natamycin, 250 ppm fenpropidin or both): 7/8 | Number of moulded oranges/total number of 8 oranges (Penicillium italicum; Day 21-22, 20° C., 250 ppm natamycin, 250 ppm fenpropidin or both): 7 and 7/8 | Number of moulded oranges/total number of 8 oranges (Penicillium italicum; Day 23-26, 20° C., 250 ppm natamycin, 250 ppm fenpropidin or both): 7 and 7/8 | Observed antifungal activity O (%) (Penicillium italicum; day 18, 250 ppm natamycin, 250 ppm fenpropidin or both): 59% | Observed antifungal activity O (%) (Penicillium italicum; day 19, 250 ppm natamycin, 250 ppm fenpropidin or both): 50% | Observed antifungal activity O (%) (Penicillium italicum; day 20, 250 ppm natamycin, 250 ppm fenpropidin or both): 43% | Observed antifungal activity O (%) (Penicillium italicum; day 21, 250 ppm natamycin, 250 ppm fenpropidin or both): 38% | Observed antifungal activity O (%) (Penicillium italicum; day 22, 250 ppm natamycin, 250 ppm fenpropidin or both): 30% | Observed antifungal activity O (%) (Penicillium italicum; day 22, 500 ppm natamycin, 500 ppm fenpropidin or both): 94% | Observed antifungal activity O (%) (Penicillium italicum; day 23, 250 ppm natamycin, 250 ppm fenpropidin or both): 16% | Observed antifungal activity O (%) (Penicillium italicum; day 23, 500 ppm natamycin, 500 ppm fenpropidin or both): 89% | Observed antifungal activity O (%) (Penicillium italicum; day 25, 250 ppm natamycin, 250 ppm fenpropidin or both): 4% | Observed antifungal activity O (%) (Penicillium italicum; day 25, 500 ppm natamycin, 500 ppm fenpropidin or both): 84% | Observed antifungal activity O (%) (Penicillium italicum; day 26, 250 ppm natamycin, 250 ppm fenpropidin or both): 0% | Observed antifungal activity O (%) (Penicillium italicum; day 26, 500 ppm natamycin, 500 ppm fenpropidin or both): 81% | Observed antifungal activity O (%) (Penicillium italicum; day 27, 500 ppm natamycin, 500 ppm fenpropidin or both): 80% | Observed antifungal activity O (%) (Penicillium italicum; day 28, 500 ppm natamycin, 500 ppm fenpropidin or both): 75%
